In patent US20200254041A1, “RAPID ONSET AND EXTENDED ACTION PLANT-BASED AND SYNTHETIC CANNABINOID FORMULATIONS” (RECEPTOR HOLDINGS, INC., priority 2017, published 2020):
In brackets after ≈: the same amount, converted by molar mass.

Tests used:
[1] = Cannabis/SNAC oral rat pharmacokinetic (PK) study; type: in vivo; details: rats; for AUC0-Tlast increase over the cannabis alone group / Cmax increase over the cannabis alone group: 500 mg/kg SNAC and 50 mg/kg cannabis extract vs 25 mg/kg cannabis alone; for AUC compared to the cannabis alone group: 25 mg/kg cannabis extract
Experimental: Summary of cannabis/SNAC oral rat pharmacokinetic (PK) study.
Methods. Animals were dosed on Day 1 and a series of blood samples were collected over a period of 4 hours post dose for pharmacokinetic evaluation. Animals were euthanized following collection of their last blood sample.

[2] = cited from earlier work
study participants [3] = test: Onset and duration of action of orally administered cannabis/SNAC formulation (200 mg SNAC) vs cannabis-only control; participant-reported euphoria/dysphoria; type: in vivo, human; details: 200 mg SNAC in oral cannabis formulation
Experimental: This study was designed to assess the utility of SNAC in enabling a rapid-acting oral form of cannabis.
Selection of Participants. Six study participants were recruited to ingest cannabis formulations and record the onset, duration, and intensity of cannabis-induced euphoria and/or dysphoria.
(§1) Formulations. The selected cannabis concentrate is commercially available and was provided to participants in an ethanol solution. The concentrate contains 8 mg THC per dose. It was selected because it contains a high percentage of THC, which provides a noticeable effect on user-reported “euphoria”.
(§2) Methods. For the Control experiment, each participant mixed the cannabis concentrate with 15 ml (one tablespoon) of aqueous ethanol, and immediately swallowed the mixture.
(§3) For both the Control experiment and the Test experiment, each participant recorded the time of dose administration, the time of onset of euphoria and/or dysphoria, and the observed level of euphoria and/or dysphoria in fifteen minute intervals for five hours following administration of the cannabis dose. Euphoria and dysphoria were reported using a scale value, in a range from 1-10.

study participants [4] = test: Onset and duration of action of orally administered cannabis/SNAC formulation at a low SNAC dose (100 mg); participant-reported euphoria; type: in vivo, human; details: 100 mg SNAC in oral cannabis formulation
Experimental: This study was designed to assess the utility of SNAC in enabling a rapid-acting oral form of cannabis at a low dose.
Selection of Participants. Three study participants were recruited to ingest cannabis formulations and record the onset, duration, and intensity of cannabis-induced euphoria and/or dysphoria.
as §1, §2, §3

[5] = cited from earlier work; remark: listed apart in the source
[6] = 25 mg/kg cannabis extract with SNAC at either 250 or 500 mg/kg

Question: Which “Cmax increase over cannabis alone” value ([1]; 25 mg/kg cannabis extract with SNAC 250 mg/kg) does the source give for `C=C(C)[C@@H]1CCC(C)=C[C@H]1c1c(O)cc(CCCCC)cc1O` [CBD, cannabidiol] here?
Answer: The value was 2.9 fold.

Question: And the “Cmax increase over cannabis alone” value ([1]; 25 mg/kg cannabis extract with SNAC 500 mg/kg)?
Answer: The value was 2.8 fold.

Question: And the “Cmax increase over cannabis alone” value [1, 6]?
Answer: The value was 2.8 fold.

Question: What about the “AUC0-Tlast increase over the cannabis alone group” value [1] of the same molecule?
Answer: Its value is 22.1 fold.

Question: What about the “Cmax increase over the cannabis alone group” value [1] of the same molecule?
Answer: The value was 14.2 fold.

Question: What about the “water solubility (in words)” value [2] of the same molecule?
Answer: Its value is “very low or no solubility in water”.

Question: Which “water solubility (in words)” value [2] does the source give for `COc1cc(CNC(=O)CCCC/C=C/C(C)C)ccc1O` [Capsaicin] here?
Answer: The value was “low water solubility”.

Question: Which aqueous solubility [2] does the source give for `COc1cc(/C=C/C(=O)CC(=O)/C=C/c2ccc(O)c(OC)c2)ccc1O` [Curcumin] here?
Answer: Its aqueous solubility is less than 100 µg/mL.

Question: For `C=CCc1ccc(O)c(OC)c1` [Eugenol], which “water solubility (in words)” value [2] is on record?
Answer: The value was “low water solubility”.

Question: For `COc1ccc([C@@H]2CC(=O)c3c(O)cc(O[C@@H]4O[C@H](CO[C@@H]5O[C@@H](C)[C@H](O)[C@@H](O)[C@H]5O)[C@@H](O)[C@H](O)[C@H]4O)cc3O2)cc1O` [Hesperidin], which “water solubility (in words)” value [2] is on record?
Answer: The value was “low water solubility”.

Question: For `Cc1cc(O)c2c(=O)c3c(O)cc(O)c4c5c(O)cc(O)c6c(=O)c7c(O)cc(C)c8c1c2c(c34)c(c78)c65` [Hypericin], which “water solubility (in words)” value [2] is on record?
Answer: The value was “insoluble in water”.

Question: For `C=CC(C)(O)CCC=C(C)C` (stereo not shown) [Linalool], which “water solubility (in words)” value [2] is on record?
Answer: The value was “low water solubility”.

Question: For `C[C@@H]1O[C@@H](O[C@H]2[C@H](Oc3cc(O)c4c(c3)O[C@H](c3ccc(O)cc3)CC4=O)O[C@H](CO)[C@@H](O)[C@@H]2O)[C@H](O)[C@H](O)[C@H]1O` [Naringin], which “water solubility (in words)” value [2] is on record?
Answer: Its value is “low water solubility”.

Question: Which “water solubility (in words)” value [2] does the source give for `C[C@@H]1O[C@@H](Oc2c(-c3ccc(O)c(O)c3)oc3cc(O)cc(O)c3c2=O)[C@H](O)[C@H](O)[C@H]1O` [Quercitrin] here?
Answer: Its value is “low water solubility”.

Question: Which “water solubility (in words)” value [2] does the source give for `COC(=O)[C@H]1[C@H]2C[C@@H]3c4[nH]c5cc(OC)ccc5c4CCN3C[C@H]2C[C@@H](OC(=O)c2cc(OC)c(OC)c(OC)c2)[C@@H]1OC` [Reserpine] here?
Answer: The value was “low water solubility”.

Question: For `Oc1ccc(C=Cc2cc(O)cc(O)c2)cc1` [Resveratrol], which aqueous solubility [2] is on record?
Answer: The aqueous solubility was 30 µg/mL (≈ 131 µM).

Question: Which “water solubility (in words)” value [2] does the source give for `C[C@@H]1O[C@@H](OC[C@H]2O[C@@H](Oc3c(-c4ccc(O)c(O)c4)oc4cc(O)cc(O)c4c3=O)[C@H](O)[C@@H](O)[C@@H]2O)[C@H](O)[C@H](O)[C@H]1O` [Rutin] here?
Answer: The value was “low water solubility”.

Question: Which “effect of the absorption enhancer on the duration of action of cannabis” value (study participants [3]) does the source give for `O=C([O-])CCCCCCCNC(=O)c1ccccc1O.[Na+]` [SNAC, sodium N-[8-(2-hydroxybenzoyl)amino] caprylate] here?
Answer: The value was “no effect on the duration of action of cannabis”.

Question: And the “effect of the absorption enhancer on the duration of action of cannabis” value (study participants [4])?
Answer: Its value is “no effect on the duration of action of cannabis”.

Question: Which “Cmax increase over cannabis alone” value [1, 6] does the source give for `CCCCCc1cc(O)c2c(c1)OC(C)(C)[C@@H]1CCC(C)=C[C@@H]21` [THC, delta-9-tetrahydrocannabinol] here?
Answer: Its value is 1.4 fold.

Question: What about the “AUC compared to the cannabis alone group” value ([1]; 250 mg/kg SNAC group) of the same molecule?
Answer: The value was 1.1 fold.

Question: And the “AUC compared to the cannabis alone group” value ([1]; 500 mg/kg SNAC group)?
Answer: Its value is “lower”.

Question: And the “AUC compared to the cannabis alone group” value ([1]; both SNAC groups (250 and 500 mg/kg))?
Answer: The value was “comparable”.

Question: What about the “AUC0-Tlast increase over the cannabis alone group” value [1] of the same molecule?
Answer: Its value is 6.3 fold.

Question: And the “Cmax increase over the cannabis alone group” value [1]?
Answer: The value was 6.9 fold.

Question: And the “duration of action / effects” value ([5]; after oral administration)?
Answer: The value was 4 to 6 h.

Question: And the onset of action ([5]; after oral administration)?
Answer: Its onset of action is “up to 1.5 hours”.

Question: What about the peak effect at ([5]; after oral administration) of the same molecule?
Answer: The peak effect at was 2 to 4 h.

Question: What about the absorbed ([5]; after single oral doses) of the same molecule?
Answer: The absorbed was 90-95%.

Question: And the “administered dose that reaches the systemic circulation” value ([5]; oral, first pass hepatic metabolism and poor aqueous solubility)?
Answer: Its value is 4-20%.

Question: With `CC[C@]1(O)C[C@@H]2CN(CCc3c([nH]c4ccccc34)[C@@](C(=O)OC)(c3cc4c(cc3OC)N(C)[C@H]3[C@@](O)(C(=O)OC)[C@H](OC(C)=O)[C@]5(CC)C=CCN6CC[C@]43[C@@H]65)C2)C1` [Vinblastine] as the molecule, how does the “water solubility (in words)” value [2] read?
Answer: Its value is “low water solubility”.
